Data published in patent US20240109917A1 (ACTELION PHARMACEUTICALS LTD, priority 2020, published 2024).
Where two headings read alike, the source gives them in different places.

How the values were obtained:
[1] = biological target: His6-TEV-PDGFRβ (557-1016) (Homo sapiens (Human), UniProt P09619); test: PDGFRβ HTRF Assay; type: biochemical; details: read-out: PDGFR HTRF IC50
How it was run: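 HTRF KinEASE-TK readout (665/620 nm ratio) of TK-biotin substrate phosphorylation by His-tagged PDGFRβ kinase domain. Enzyme and inhibitor preincubated 30 min, then ATP/substrate added for 3 h at room temperature before 60 min EDTA quench/detection.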

[2] = biological target: PDGFRβ (Rattus norvegicus (Rat), UniProt Q05030); test: PDGFRβ Cellular Assay (PDGFRb P-Y751 HTRF in A10 cells stimulated with PDGF-BB); type: cell-based
Chain of PDGFRβ (Q05030 32-1097): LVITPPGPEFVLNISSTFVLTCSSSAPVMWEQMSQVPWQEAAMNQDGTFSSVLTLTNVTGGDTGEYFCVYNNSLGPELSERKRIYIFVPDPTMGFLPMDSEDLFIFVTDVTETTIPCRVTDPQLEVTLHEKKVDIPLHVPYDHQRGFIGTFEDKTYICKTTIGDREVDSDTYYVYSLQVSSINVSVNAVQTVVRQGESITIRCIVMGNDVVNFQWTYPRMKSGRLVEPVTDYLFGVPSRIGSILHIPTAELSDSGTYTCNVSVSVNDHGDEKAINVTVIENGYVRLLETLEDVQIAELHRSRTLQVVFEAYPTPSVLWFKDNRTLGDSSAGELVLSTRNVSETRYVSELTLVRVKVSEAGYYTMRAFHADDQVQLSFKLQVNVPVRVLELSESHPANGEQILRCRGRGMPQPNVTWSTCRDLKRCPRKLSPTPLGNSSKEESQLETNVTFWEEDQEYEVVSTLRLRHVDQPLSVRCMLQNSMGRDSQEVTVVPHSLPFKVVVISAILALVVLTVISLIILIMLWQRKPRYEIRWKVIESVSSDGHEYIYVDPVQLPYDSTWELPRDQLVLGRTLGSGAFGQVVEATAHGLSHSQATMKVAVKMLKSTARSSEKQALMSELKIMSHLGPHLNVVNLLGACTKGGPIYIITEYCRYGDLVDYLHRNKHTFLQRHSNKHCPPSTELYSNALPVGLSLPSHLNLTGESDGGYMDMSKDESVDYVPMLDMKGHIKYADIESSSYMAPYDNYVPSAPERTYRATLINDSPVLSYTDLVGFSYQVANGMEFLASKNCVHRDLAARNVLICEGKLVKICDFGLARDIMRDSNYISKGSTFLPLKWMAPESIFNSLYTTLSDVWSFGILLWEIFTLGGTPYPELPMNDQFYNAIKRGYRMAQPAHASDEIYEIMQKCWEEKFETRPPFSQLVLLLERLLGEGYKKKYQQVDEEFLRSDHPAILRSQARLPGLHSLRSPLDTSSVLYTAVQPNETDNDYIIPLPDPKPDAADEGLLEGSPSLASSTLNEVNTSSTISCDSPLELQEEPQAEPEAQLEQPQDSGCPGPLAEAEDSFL
How it was run: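 Phospho-Y751 PDGFRβ was measured by HTRF in lysates of A10 rat cells. Cells received compound for 3 hours before PDGF-BB stimulation (100 ng/mL working stock).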

Chain of His6-TEV-PDGFRβ (557-1016) (P09619 557-1016): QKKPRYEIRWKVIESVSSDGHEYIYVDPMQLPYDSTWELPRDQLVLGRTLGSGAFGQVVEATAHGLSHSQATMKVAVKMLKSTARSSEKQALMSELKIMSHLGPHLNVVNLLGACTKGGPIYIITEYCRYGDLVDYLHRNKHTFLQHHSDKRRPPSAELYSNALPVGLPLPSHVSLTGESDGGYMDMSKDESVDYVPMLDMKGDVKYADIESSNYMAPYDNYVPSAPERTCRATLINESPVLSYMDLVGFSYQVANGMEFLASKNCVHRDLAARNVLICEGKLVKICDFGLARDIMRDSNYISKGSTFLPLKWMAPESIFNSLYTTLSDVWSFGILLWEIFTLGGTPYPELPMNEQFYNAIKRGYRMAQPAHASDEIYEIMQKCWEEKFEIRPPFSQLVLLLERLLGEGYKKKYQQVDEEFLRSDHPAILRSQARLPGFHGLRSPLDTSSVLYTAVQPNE

SMILES	IC50 [1] [nM]	IC50 ([2]; PDGFR Cellular IC50) [nM]	IC50 ([2]; read-out: PDGFR Cellular IC50) [nM]
Cc1ncc(NC(=O)CCN2CCCC2(C)C)cc1NC(=O)c1cnn2cc(-n3ncc4cccnc43)sc12 [Example 260, N-(5-(3-(2,2-dimethylpyrrolidin-1-yl)propanamido)-2-methylpyridin-3-yl)-2-(1H-pyrazolo[3,4-b]pyridin-1-yl)pyrazolo[5,1-b]thiazole-7-carboxamide]	0.3	3.1	
Cc1ncc(NC(=O)C[C@@H]2CCCCN2C(C)C)cc1NC(=O)c1cnn2cc(-c3cnn(C)c3)sc12 [Example 305, (S)—N-(5-(2-(1-isopropylpiperidin-2-yl)acetamido)-2-methylpyridin-3-yl)-2-(1-methyl-1H-pyrazol-4-yl)pyrazolo[5,1-b]thiazole-7-carboxamide]	2.1		308
Cc1ncc(NC(=O)CN(C)C2CCOCC2)cc1NC(=O)c1cnn2cc(-c3cnn(C4CC4)c3)sc12 [Example 294, 2-(1-cyclopropyl-1H-pyrazol-4-yl)-N-(2-methyl-5-(2-(methyl(tetrahydro-2H-pyran-4-yl)amino)acetamido)pyridin-3-yl)pyrazolo[5,1-b]thiazole-7-carboxamide]	0.3		12.7
Cc1ncc(NC(=O)CN2CC(C)(C)C2)cc1NC(=O)c1cnn2cc(-c3ccc(CO)s3)sc12 [Example 278, N-(5-(2-(3,3-dimethylazetidin-1-yl)acetamido)-2-methylpyridin-3-yl)-2-(5-(hydroxymethyl)thiophen-2-yl)pyrazolo[5,1-b]thiazole-7-carboxamide]	0.2		1.5
Cc1ncc(NC(=O)CN2CC(C)(C)C2)cc1NC(=O)c1cnn2cc(-c3cnn(C4CCNCC4)c3)sc12 [Example 293, N-(5-(2-(3,3-dimethylazetidin-1-yl)acetamido)-2-methylpyridin-3-yl)-2-(1-(piperidin-4-yl)-1H-pyrazol-4-yl)pyrazolo[5,1-b]thiazole-7-carboxamide]	0.4		337
COc1ncccc1-c1cn2ncc(C(=O)Nc3cc(NC(=O)CN4CCOCC45CCC5)cnc3C)c2s1 [Example 310, N-(5-(2-(8-oxa-5-azaspiro[3.5]nonan-5-yl)acetamido)-2-methylpyridin-3-yl)-2-(2-methoxypyridin-3-yl)pyrazolo[5,1-b]thiazole-7-carboxamide]	0.3		3.3
Cc1ncc(NC(=O)C(C)N2CCCCCC2)cc1NC(=O)c1cnn2cc(-c3cnn(C)c3)sc12 (centres unmarked) [Example 306, N-(5-(2-(azepan-1-yl)propanamido)-2-methylpyridin-3-yl)-2-(1-methyl-1H-pyrazol-4-yl)pyrazolo[5,1-b]thiazole-7-carboxamide]	0.5		4.8
COc1ncccc1-c1cn2ncc(C(=O)Nc3cc(NC(=O)C4CCCCN4C(C)C)cnc3C)c2s1 (centres unmarked) [Example 315, N-(5-(1-isopropylpiperidine-2-carboxamido)-2-methylpyridin-3-yl)-2-(2-methoxypyridin-3-yl)pyrazolo[5,1-b]thiazole-7-carboxamide]	0.3		5.4
COc1ncccc1-c1cn2ncc(C(=O)Nc3cc(NC(=O)[C@@H]4C[C@H](C)CN4C)cnc3C)c2s1 [Example 317, N-(5-((2S,4S)-1,4-dimethylpyrrolidine-2-carboxamido)-2-methylpyridin-3-yl)-2-(2-methoxypyridin-3-yl)pyrazolo[5,1-b]thiazole-7-carboxamide]	0.3		6.5
Cc1ncc(NC(=O)CN2CC(C)(C)C2)cc1NC(=O)c1cnn2cc(-c3cnn(CC(C)O)c3)sc12 (centres unmarked) [Example 281, N-(5-(2-(3,3-dimethylazetidin-1-yl)acetamido)-2-methylpyridin-3-yl)-2-(1-(2-hydroxypropyl)-1H-pyrazol-4-yl)pyrazolo[5,1-b]thiazole-7-carboxamide]	0.4		10.9
COc1ncccc1-c1cn2ncc(C(=O)Nc3cc(NC(=O)C[C@@H]4CCCN4C(C)C)cnc3C)c2s1 [Example 323, (S)—N-(5-(2-(1-isopropylpyrrolidin-2-yl)acetamido)-2-methylpyridin-3-yl)-2-(2-methoxypyridin-3-yl)pyrazolo[5,1-b]thiazole-7-carboxamide]	0.2		2.8
Cc1ncc(NC(=O)CN2CC(C)(C)C2)cc1NC(=O)c1cnn2cc(-c3cnc4[nH]ncc4c3)sc12 [Example 288, N-(5-(2-(3,3-dimethylazetidin-1-yl)acetamido)-2-methylpyridin-3-yl)-2-(1H-pyrazolo[3,4-b]pyridin-5-yl)pyrazolo[5,1-b]thiazole-7-carboxamide]	0.4		13.5
COc1ncccc1-c1cn2ncc(C(=O)Nc3cc(NC(=O)C[C@H]4CCCN4C(C)C)cnc3C)c2s1 [Example 309, (R)—N-(5-(2-(1-isopropylpyrrolidin-2-yl)acetamido)-2-methylpyridin-3-yl)-2-(2-methoxypyridin-3-yl)pyrazolo[5,1-b]thiazole-7-carboxamide]	0.2		4.2
Cc1ncc(NC(=O)CN2CC(C)(C)C2)cc1NC(=O)c1cnn2cc(-c3cnn(C4CCS(=O)(=O)CC4)c3)sc12 [Example 280, N-(5-(2-(3,3-dimethylazetidin-1-yl)acetamido)-2-methylpyridin-3-yl)-2-(1-(1,1-dioxidotetrahydro-2H-thiopyran-4-yl)-1H-pyrazol-4-yl)pyrazolo[5,1-b]thiazole-7-carboxamide]	0.3		85.9
COc1ncccc1-c1cn2ncc(C(=O)Nc3cc(NC(=O)OCC(C)N4CCCC4)cnc3C)c2s1 (centres unmarked) [Example 255, 2-(pyrrolidin-1-yl)propyl (5-(2-(2-methoxypyridin-3-yl)pyrazolo[5,1-b]thiazole-7-carboxamido)-6-methylpyridin-3-yl)carbamate]	0.2		9.3
Cc1ncc(NC(=O)CN2CCCCC23COC3)cc1NC(=O)c1cnn2cc(-c3cnn(C)c3)sc12 [Example 25, N-(5-(2-(2-oxa-5-azaspiro[3.5]nonan-5-yl)acetamido)-2-methylpyridin-3-yl)-2-(1-methyl-1H-pyrazol-4-yl)pyrazolo[5,1-b]thiazole-7-carboxamide]	0.7		27.7
COCCn1cc(-c2cn3ncc(C(=O)Nc4cc(NC(=O)CN5CCCC5(C)C)cnc4C)c3s2)cn1 [Example 329, N-(5-(2-(2,2-dimethylpyrrolidin-1-yl)acetamido)-2-methylpyridin-3-yl)-2-(1-(2-methoxyethyl)-1H-pyrazol-4-yl)pyrazolo[5,1-b]thiazole-7-carboxamide]	0.5	4.4	
Cc1ncc(NC(=O)CN2CC(C)(C)C2)cc1NC(=O)c1cnn2cc(-c3cnn(CC4COC4)c3)sc12 [Example 263, N-(5-(2-(3,3-dimethylazetidin-1-yl)acetamido)-2-methylpyridin-3-yl)-2-(1-(oxetan-3-ylmethyl)-1H-pyrazol-4-yl)pyrazolo[5,1-b]thiazole-7-carboxamide]	0.6		13.9
Cc1ncc(NC(=O)CN2CCCC3(COC3)C2)cc1NC(=O)c1cnn2cc(-c3cnn(C)c3)sc12 [Example 24, N-(5-(2-(2-oxa-6-azaspiro[3.5]nonan-6-yl)acetamido)-2-methylpyridin-3-yl)-2-(1-methyl-1H-pyrazol-4-yl)pyrazolo[5,1-b]thiazole-7-carboxamide]	0.7		31.8
Cc1ncc(NC(=O)OC[C@@H]2CCCN2C)cc1NC(=O)c1cnn2cc(-c3cc[nH]c3)sc12 [Example 258, (S)-(1-methylpyrrolidin-2-yl)methyl (5-(2-(1H-pyrrol-3-yl)pyrazolo[5,1-b]thiazole-7-carboxamido)-6-methylpyridin-3-yl)carbamate]	0.4		48.7
Cc1ncc(NC(=O)CN2CC(C)(C)C2)cc1NC(=O)c1cnn2cc(-c3ccoc3)sc12 [Example 283, N-(5-(2-(3,3-dimethylazetidin-1-yl)acetamido)-2-methylpyridin-3-yl)-2-(furan-3-yl)pyrazolo[5,1-b]thiazole-7-carboxamide]	0.1		1.5
Cc1ncc(NC(=O)CN2CC(C)(C)C2)cc1NC(=O)c1cnn2cc(-c3cccc4c3cnn4C)sc12 [Example 286, N-(5-(2-(3,3-dimethylazetidin-1-yl)acetamido)-2-methylpyridin-3-yl)-2-(1-methyl-1H-indazol-4-yl)pyrazolo[5,1-b]thiazole-7-carboxamide]	0.1		1.4
Cc1ncc(NC(=O)[C@@H]2CCCN3CCCC[C@H]23)cc1NC(=O)c1cnn2cc(-c3cnn(C)c3)sc12 [Example 308, 2-(1-methyl-1H-pyrazol-4-yl)-N-(2-methyl-5-((1R,9aR)-octahydro-2H-quinolizine-1-carboxamido)pyridin-3-yl)pyrazolo[5,1-b]thiazole-7-carboxamide]	20.9		311
Cc1ncc(NC(=O)CN2CC(C)(C)C2)cc1NC(=O)c1cnn2cc(-c3cnn(CS(C)(=O)=O)c3)sc12 [Example 265, N-(5-(2-(3,3-dimethylazetidin-1-yl)acetamido)-2-methylpyridin-3-yl)-2-(1-((methylsulfonyl)methyl)-1H-pyrazol-4-yl)pyrazolo[5,1-b]thiazole-7-carboxamide]	0.5		114
Cc1ncc(NC(=O)C2CCCCN2C(C)C)cc1NC(=O)c1cnn2cc(-c3cccnc3O)sc12 (centres unmarked) [Example 314, 2-(2-hydroxypyridin-3-yl)-N-(5-(1-isopropylpiperidine-2-carboxamido)-2-methylpyridin-3-yl)pyrazolo[5,1-b]thiazole-7-carboxamide]	2.5		548
